The text below walks through data of PubChem BioAssay (NCI).

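Results reflect a 48-hour exposure of cells in 96-well plates to compound at five concentrations. TGI is the concentration that stops growth completely.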

One experiment deals with SNB-19 CNS. The experiment in a line: NCI-60 cell line screen, 48 h.
In the case of `Nc1ccc2nc(-c3ccccn3)c(-c3ccccn3)nc2c1`, the TGI was above 100 µM.

For `CC1=C(C(=O)Nc2ccc([N+](=O)[O-])cc2)C(c2ccc(N(C)C)cc2)C(C(=O)Nc2ccc([N+](=O)[O-])cc2)=C(C)N1`, the TGI was above 100 µM.

As for `O=C1C=CC(=Nc2ccc3c(c2)C(Br)c2ccccc2-3)O1` (configuration not stated), the TGI is above 100 µM.

`CN(CCC#N)c1ccc(/C=C2\SC(=S)NC2=O)cc1` gave a TGI above 100 µM.

For a further experiment, the system named is EKVX NSCLC. In words: NCI-60 cell line screen, 48 h.
`Nc1ccc2nc(-c3ccccn3)c(-c3ccccn3)nc2c1` had a TGI above 100 µM.

As to `CC1=C(C(=O)Nc2ccc([N+](=O)[O-])cc2)C(c2ccc(N(C)C)cc2)C(C(=O)Nc2ccc([N+](=O)[O-])cc2)=C(C)N1`, the TGI worked out at 90.4 µM.

On to `O=C1C=CC(=Nc2ccc3c(c2)C(Br)c2ccccc2-3)O1` (configuration not stated), for which the TGI is above 100 µM.

Compound `CN(CCC#N)c1ccc(/C=C2\SC(=S)NC2=O)cc1` showed a TGI above 100 µM.

Another experiment concerns NCI/ADR-RES ovarian. The experiment in a line: NCI-60 cell line screen, 48 h.
`Nc1ccc2nc(-c3ccccn3)c(-c3ccccn3)nc2c1`: the TGI was above 100 µM.

`CN(CCC#N)c1ccc(/C=C2\SC(=S)NC2=O)cc1` registered a TGI above 100 µM.

A further experiment concerns SK-OV-3 ovarian. The experiment in a line: NCI-60 cell line screen, 48 h.
Turning to `CC1=C(C(=O)Nc2ccc([N+](=O)[O-])cc2)C(c2ccc(N(C)C)cc2)C(C(=O)Nc2ccc([N+](=O)[O-])cc2)=C(C)N1`, the TGI is 80 µM.

In turn, `O=C1C=CC(=Nc2ccc3c(c2)C(Br)c2ccccc2-3)O1` (configuration not stated) returned a TGI above 100 µM.

In the case of `CN(CCC#N)c1ccc(/C=C2\SC(=S)NC2=O)cc1`, the TGI is above 100 µM.

Another experiment deals with SR leukemia. The experiment in a line: NCI-60 cell line screen, 48 h.
As for `Nc1ccc2nc(-c3ccccn3)c(-c3ccccn3)nc2c1`, the TGI was above 100 µM.

With `O=C1C=CC(=Nc2ccc3c(c2)C(Br)c2ccccc2-3)O1` (configuration not stated), the TGI is above 100 µM.

In turn, `CN(CCC#N)c1ccc(/C=C2\SC(=S)NC2=O)cc1` yielded a TGI above 100 µM.

For the next experiment, the system named is A498 renal. In words: NCI-60 cell line screen, 48 h.
Compound `Nc1ccc2nc(-c3ccccn3)c(-c3ccccn3)nc2c1` gave a TGI above 100 µM.

On to `CC1=C(C(=O)Nc2ccc([N+](=O)[O-])cc2)C(c2ccc(N(C)C)cc2)C(C(=O)Nc2ccc([N+](=O)[O-])cc2)=C(C)N1`, for which the TGI was determined as 81.8 µM.

For the compound `CN(CCC#N)c1ccc(/C=C2\SC(=S)NC2=O)cc1`, the TGI is above 100 µM.

In another experiment the test system is KM20L2 colon. The experiment in a line: NCI-60 cell line screen, 48 h.
In the case of `CC1=C(C(=O)Nc2ccc([N+](=O)[O-])cc2)C(c2ccc(N(C)C)cc2)C(C(=O)Nc2ccc([N+](=O)[O-])cc2)=C(C)N1`, the TGI came to 43.4 µM.

The test system of the next experiment is OVCAR-4 ovarian. The experiment in a line: NCI-60 cell line screen, 48 h.
Compound `Nc1ccc2nc(-c3ccccn3)c(-c3ccccn3)nc2c1` registered a TGI above 100 µM.

In turn, `CC1=C(C(=O)Nc2ccc([N+](=O)[O-])cc2)C(c2ccc(N(C)C)cc2)C(C(=O)Nc2ccc([N+](=O)[O-])cc2)=C(C)N1` yielded a TGI of 89.5 µM.

Compound `CN(CCC#N)c1ccc(/C=C2\SC(=S)NC2=O)cc1` came in with a TGI above 100 µM.

The next experiment relates to NCI-H522 lung. The experiment in a line: NCI-60 cell line screen, 48 h.
Consider `Nc1ccc2nc(-c3ccccn3)c(-c3ccccn3)nc2c1`, for which the TGI is above 100 µM.

`CC1=C(C(=O)Nc2ccc([N+](=O)[O-])cc2)C(c2ccc(N(C)C)cc2)C(C(=O)Nc2ccc([N+](=O)[O-])cc2)=C(C)N1` returned a TGI of 25.6 µM.

As for `O=C1C=CC(=Nc2ccc3c(c2)C(Br)c2ccccc2-3)O1` (configuration not stated), the TGI stood at 81.7 µM.

Compound `CN(CCC#N)c1ccc(/C=C2\SC(=S)NC2=O)cc1` had a TGI above 100 µM.

The subject of another experiment is PC-3 prostate. The experiment in a line: NCI-60 cell line screen, 48 h.
The compound `Nc1ccc2nc(-c3ccccn3)c(-c3ccccn3)nc2c1` displayed a TGI above 100 µM.

Compound `CN(CCC#N)c1ccc(/C=C2\SC(=S)NC2=O)cc1` showed a TGI above 100 µM.

Another experiment has as its system SW-620 colon. The experiment in a line: NCI-60 cell line screen, 48 h.
Consider `Nc1ccc2nc(-c3ccccn3)c(-c3ccccn3)nc2c1`, for which the TGI is above 100 µM.

Compound `CC1=C(C(=O)Nc2ccc([N+](=O)[O-])cc2)C(c2ccc(N(C)C)cc2)C(C(=O)Nc2ccc([N+](=O)[O-])cc2)=C(C)N1` yielded a TGI of 69.8 µM.

As to `O=C1C=CC(=Nc2ccc3c(c2)C(Br)c2ccccc2-3)O1` (configuration not stated), the TGI is above 100 µM.

`CN(CCC#N)c1ccc(/C=C2\SC(=S)NC2=O)cc1` showed a TGI above 100 µM.

In the next experiment the test system is MCF7 breast. In words: NCI-60 cell line screen, 48 h.
As to `Nc1ccc2nc(-c3ccccn3)c(-c3ccccn3)nc2c1`, the TGI was above 100 µM.

In turn, `CN(CCC#N)c1ccc(/C=C2\SC(=S)NC2=O)cc1` registered a TGI above 100 µM.

The next experiment deals with KM12 colon. In words: NCI-60 cell line screen, 48 h.
With `Nc1ccc2nc(-c3ccccn3)c(-c3ccccn3)nc2c1`, the TGI is above 100 µM.

With `CC1=C(C(=O)Nc2ccc([N+](=O)[O-])cc2)C(c2ccc(N(C)C)cc2)C(C(=O)Nc2ccc([N+](=O)[O-])cc2)=C(C)N1`, the TGI came to 37 µM.

Consider `CN(CCC#N)c1ccc(/C=C2\SC(=S)NC2=O)cc1`, for which the TGI was above 100 µM.

The next experiment deals with CAKI-1 renal. In words: NCI-60 cell line screen, 48 h.
`Nc1ccc2nc(-c3ccccn3)c(-c3ccccn3)nc2c1`: the TGI was above 100 µM.

On to `CC1=C(C(=O)Nc2ccc([N+](=O)[O-])cc2)C(c2ccc(N(C)C)cc2)C(C(=O)Nc2ccc([N+](=O)[O-])cc2)=C(C)N1`, for which the TGI turned out to be 89.5 µM.

For `CN(CCC#N)c1ccc(/C=C2\SC(=S)NC2=O)cc1`, the TGI is above 100 µM.

Another experiment relates to A549 NSCLC. In words: NCI-60 cell line screen, 48 h.
In turn, `Nc1ccc2nc(-c3ccccn3)c(-c3ccccn3)nc2c1` displayed a TGI above 100 µM.

As for `CC1=C(C(=O)Nc2ccc([N+](=O)[O-])cc2)C(c2ccc(N(C)C)cc2)C(C(=O)Nc2ccc([N+](=O)[O-])cc2)=C(C)N1`, the TGI was above 100 µM.

Take `O=C1C=CC(=Nc2ccc3c(c2)C(Br)c2ccccc2-3)O1` (configuration not stated): the TGI is above 100 µM.

`CN(CCC#N)c1ccc(/C=C2\SC(=S)NC2=O)cc1`: the TGI is above 100 µM.

The subject of a further experiment is MDA-N. The experiment in a line: NCI-60 cell line screen, 48 h.
For `Nc1ccc2nc(-c3ccccn3)c(-c3ccccn3)nc2c1`, the TGI was above 100 µM.

In turn, `CN(CCC#N)c1ccc(/C=C2\SC(=S)NC2=O)cc1` displayed a TGI above 100 µM.

The next experiment has as its system TK-10 renal. In words: NCI-60 cell line screen, 48 h.
Regarding `Nc1ccc2nc(-c3ccccn3)c(-c3ccccn3)nc2c1`, the TGI was above 100 µM.

As for `CC1=C(C(=O)Nc2ccc([N+](=O)[O-])cc2)C(c2ccc(N(C)C)cc2)C(C(=O)Nc2ccc([N+](=O)[O-])cc2)=C(C)N1`, the TGI was 92.2 µM.

For `O=C1C=CC(=Nc2ccc3c(c2)C(Br)c2ccccc2-3)O1` (configuration not stated), the TGI was above 100 µM.

As for `CN(CCC#N)c1ccc(/C=C2\SC(=S)NC2=O)cc1`, the TGI was above 100 µM.

Another experiment has as its system MOLT-4 leukemia. The experiment in a line: NCI-60 cell line screen, 48 h.
The compound `Nc1ccc2nc(-c3ccccn3)c(-c3ccccn3)nc2c1` returned a TGI above 100 µM.
